Data from patent US20160256449A1, “H3 RECEPTOR ANTAGONIST FOR USE IN THE TREATMENT OF ALZHEIMER'S DISEASE” (SANOFI, priority 2013, published 2016).
Counter-ions that a name gives are not always drawn.

Experiments:
[1] = test system: CD1 male mice; test: object recognition test in normal mice; format: in vivo; settings: 3 mg/kg oral, individually
From the text: FIG. 1 illustrates the results of the effect of a co-treatment with 2-(cyclohexyl methyl)-N-{2-[(2S)-1-methyl pyrrolidin-2-yl]ethyl}-1,2,3,4-tetrahydroisoquinoline-7-sulfonamide and donepezil on recognition memory in normal mice at various delays using the object recognition task.
The results of this study are depicted in FIG. 1.

[2] = test system: scopolamine treated mice; test: object recognition task in scopolamine-treated mice; format: in vivo; settings: 1 mg/kg alone
From the text: FIG. 2 illustrates the results of the effect of a co-treatment with 2-(cyclohexylmethyl)-N-{2-[(2S)-1-methylpyrrolidin-2-yl]ethyl}-1,2,3,4-tetrahydroisoquinoline-7-sulfonamide and donepezil on recognition memory deficit in scopolamine-treated mice using the object recognition task.
The results of this study are depicted in FIG. 2.

[3] = test system: various rodent models; settings: cited from earlier work

SMILES	memory in object recognition test ([1]; 24 hours after administration)	procognitive effect in object recognition test ([1]; after 48 hours)	activity of the amount given alone, episodic memory deficits [2]	cognitive performances on short-term and long-term memory and attention deficits [3]
COc1cc2c(cc1OC)C(=O)C(CC1CCN(Cc3ccccc3)CC1)C2 (racemic) [donepezil hydrochloride, (±)-2,3-dihydro-5,6-dimethoxy-2-[[1-(phenylmethyl)-4-piperidinyl]methyl]-1H-inden-1-one, reference compound]	enhanced the memory	lack of procognitive effect	inactive	
CN1CCC[C@H]1CCNS(=O)(=O)c1ccc2c(c1)CN(CC1CCCCC1)CC2 [2-(Cyclohexylmethyl)-N-{2-[(2S)-1-methylpyrrolidin-2-yl]ethyl}-1,2,3,4-tetrahydroisoquinoline-7-sulfonamide]				improves cognitive performances
